Results taken from PubChem BioAssay (NCI).
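Exposure lasted 48 hours, with cells grown in 96-well plates and compounds tested at five concentrations. At the GI50, growth is halved. The concentration for full growth arrest is given as TGI.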

Columns and labels:
Experiment in all cases: growth of human tumour cells (NCI), 48 h
OVCAR-8 ovarian = tested on: OVCAR-8 ovarian
PC-3 prostate = tested on: PC-3 prostate
NCI-H460 lung = tested on: NCI-H460 lung
OVCAR-5 ovarian = tested on: OVCAR-5 ovarian
NCI-H23 lung = tested on: NCI-H23 lung
NCI-H522 lung = tested on: NCI-H522 lung
SW-620 colon = tested on: SW-620 colon
MOLT-4 leukemia = tested on: MOLT-4 leukemia
KM12 colon = tested on: KM12 colon
OVCAR-4 ovarian = tested on: OVCAR-4 ovarian
HT29 colon = tested on: HT29 colon
OVCAR-3 ovarian = tested on: OVCAR-3 ovarian
K-562 leukemia = tested on: K-562 leukemia
SN12C renal = tested on: SN12C renal
RPMI-8226 leukemia = tested on: RPMI-8226 leukemia
BT-549 breast = tested on: BT-549 breast
HCT-15 colon = tested on: HCT-15 colon
EKVX NSCLC = tested on: EKVX NSCLC
CCRF-CEM leukemia = tested on: CCRF-CEM leukemia
SK-MEL-5 melanoma = tested on: SK-MEL-5 melanoma
DU-145 prostate = tested on: DU-145 prostate
A549 NSCLC = tested on: A549 NSCLC
786-0 renal = tested on: 786-0 renal
SNB-75 CNS = tested on: SNB-75 CNS
TK-10 renal = tested on: TK-10 renal
T-47D breast = tested on: T-47D breast
SF-539 CNS = tested on: SF-539 CNS
A498 renal = tested on: A498 renal
UO-31 renal = tested on: UO-31 renal
NCI-H226 lung = tested on: NCI-H226 lung
U251 CNS = tested on: U251 CNS
HCT-116 colon = tested on: HCT-116 colon
HS 578T breast = tested on: HS 578T breast
SNB-19 CNS = tested on: SNB-19 CNS
SF-268 CNS = tested on: SF-268 CNS
HOP-92 NSCLC = tested on: HOP-92 NSCLC
HL-60(TB) leukemia = tested on: HL-60(TB) leukemia
SK-MEL-28 melanoma = tested on: SK-MEL-28 melanoma
UACC-257 melanoma = tested on: UACC-257 melanoma
SR leukemia = tested on: SR leukemia
COLO 205 colon = tested on: COLO 205 colon
UACC-62 melanoma = tested on: UACC-62 melanoma
SK-OV-3 ovarian = tested on: SK-OV-3 ovarian
HOP-62 NSCLC = tested on: HOP-62 NSCLC
MCF7 breast = tested on: MCF7 breast
ACHN renal = tested on: ACHN renal
MDA-MB-231 breast = tested on: MDA-MB-231 breast
HCC-2998 colon = tested on: HCC-2998 colon
LOX IMVI melanoma = tested on: LOX IMVI melanoma
SF-295 CNS = tested on: SF-295 CNS
CAKI-1 renal = tested on: CAKI-1 renal
SK-MEL-2 melanoma = tested on: SK-MEL-2 melanoma
IGROV1 ovarian = tested on: IGROV1 ovarian
RXF 393 renal = tested on: RXF 393 renal
MDA-MB-435 = tested on: MDA-MB-435
NCI/ADR-RES ovarian = tested on: NCI/ADR-RES ovarian
MALME-3M melanoma = tested on: MALME-3M melanoma
M14 melanoma = tested on: M14 melanoma

Fc1ccc(-c2nnc3sc(-c4cc(Cl)cc(Cl)c4)nn23)cc1Cl was tested, and the GI50 (OVCAR-8 ovarian) was 46.6 µM, the TGI (OVCAR-8 ovarian) was > 100 µM and the GI50 (PC-3 prostate) was 61.3 µM. For the same molecule, the TGI (PC-3 prostate) was > 100 µM, the GI50 (NCI-H460 lung) was 39.3 µM and the TGI (NCI-H460 lung) was > 100 µM. The GI50 (OVCAR-5 ovarian) was 70.1 µM, the TGI (OVCAR-5 ovarian) was > 100 µM and the GI50 (NCI-H23 lung) was 37.2 µM. The TGI (NCI-H23 lung) was > 100 µM, the GI50 (NCI-H522 lung) was 49.7 µM and the TGI (NCI-H522 lung) was > 100 µM. For the same molecule, the GI50 (SW-620 colon) was 45 µM, the TGI (SW-620 colon) was > 100 µM and the GI50 (MOLT-4 leukemia) was 72.9 µM. The TGI (MOLT-4 leukemia) was > 100 µM, the GI50 (KM12 colon) was > 100 µM and the TGI (KM12 colon) was > 100 µM. It also gave a GI50 (OVCAR-4 ovarian) of 17.4 µM, a TGI (OVCAR-4 ovarian) of 53.4 µM and a GI50 (HT29 colon) of 28.1 µM. The TGI (HT29 colon) was 83.3 µM, the GI50 (OVCAR-3 ovarian) was > 100 µM and the TGI (OVCAR-3 ovarian) was > 100 µM. For the same molecule, the GI50 (K-562 leukemia) was > 100 µM, the TGI (K-562 leukemia) was > 100 µM and the GI50 (SN12C renal) was 34.2 µM. For the same molecule, the TGI (SN12C renal) was > 100 µM, the GI50 (RPMI-8226 leukemia) was 46.8 µM and the TGI (RPMI-8226 leukemia) was > 100 µM. The GI50 (BT-549 breast) was 87.1 µM, the TGI (BT-549 breast) was > 100 µM and the GI50 (HCT-15 colon) was 72.5 µM. The TGI (HCT-15 colon) was > 100 µM, the GI50 (EKVX NSCLC) was > 100 µM and the TGI (EKVX NSCLC) was > 100 µM. The GI50 (CCRF-CEM leukemia) was 29 µM, the TGI (CCRF-CEM leukemia) was 86.8 µM and the GI50 (SK-MEL-5 melanoma) was > 100 µM. For the same molecule, the TGI (SK-MEL-5 melanoma) was > 100 µM, the GI50 (DU-145 prostate) was > 100 µM and the TGI (DU-145 prostate) was > 100 µM. It also gave a GI50 (A549 NSCLC) of 24.4 µM, a TGI (A549 NSCLC) of 61.8 µM and a GI50 (786-0 renal) of 29.7 µM. For the same molecule, the TGI (786-0 renal) was > 100 µM, the GI50 (SNB-75 CNS) was 13 µM and the TGI (SNB-75 CNS) was 30.1 µM. The GI50 (TK-10 renal) was 20.5 µM, the TGI (TK-10 renal) was 44 µM and the GI50 (T-47D breast) was > 100 µM. The TGI (T-47D breast) was > 100 µM, the GI50 (SF-539 CNS) was > 100 µM and the TGI (SF-539 CNS) was > 100 µM. It also gave a GI50 (A498 renal) of 29 µM, a TGI (A498 renal) of 77.9 µM and a GI50 (UO-31 renal) of 39.6 µM. The TGI (UO-31 renal) was > 100 µM, the GI50 (NCI-H226 lung) was 34.3 µM and the TGI (NCI-H226 lung) was > 100 µM. For the same molecule, the GI50 (U251 CNS) was 17.3 µM, the TGI (U251 CNS) was 43.6 µM and the GI50 (HCT-116 colon) was 18.5 µM. For the same molecule, the TGI (HCT-116 colon) was 44.2 µM, the GI50 (HS 578T breast) was 45.2 µM and the TGI (HS 578T breast) was > 100 µM. For the same molecule, the GI50 (SNB-19 CNS) was 32.3 µM, the TGI (SNB-19 CNS) was > 100 µM and the GI50 (SF-268 CNS) was 53 µM. For the same molecule, the TGI (SF-268 CNS) was > 100 µM, the GI50 (HOP-92 NSCLC) was 20.5 µM and the TGI (HOP-92 NSCLC) was 52.4 µM. The GI50 (HL-60(TB) leukemia) was 99.1 µM, the TGI (HL-60(TB) leukemia) was > 100 µM and the GI50 (SK-MEL-28 melanoma) was > 100 µM. For the same molecule, the TGI (SK-MEL-28 melanoma) was > 100 µM, the GI50 (UACC-257 melanoma) was 38.2 µM and the TGI (UACC-257 melanoma) was > 100 µM. The GI50 (SR leukemia) was 13.3 µM, the TGI (SR leukemia) was 43.8 µM and the GI50 (COLO 205 colon) was 56.6 µM. The TGI (COLO 205 colon) was > 100 µM, the GI50 (UACC-62 melanoma) was 31.1 µM and the TGI (UACC-62 melanoma) was > 100 µM. It also gave a GI50 (SK-OV-3 ovarian) of 24.6 µM, a TGI (SK-OV-3 ovarian) of 46.3 µM and a GI50 (HOP-62 NSCLC) of 20.3 µM. The TGI (HOP-62 NSCLC) was 42 µM, the GI50 (MCF7 breast) was 30.5 µM and the TGI (MCF7 breast) was > 100 µM. For the same molecule, the GI50 (ACHN renal) was 21 µM, the TGI (ACHN renal) was 45.6 µM and the GI50 (MDA-MB-231 breast) was 17.2 µM. The TGI (MDA-MB-231 breast) was 39.4 µM, the GI50 (HCC-2998 colon) was > 100 µM and the TGI (HCC-2998 colon) was > 100 µM. For the same molecule, the GI50 (LOX IMVI melanoma) was 32.8 µM, the TGI (LOX IMVI melanoma) was > 100 µM and the GI50 (SF-295 CNS) was 74.2 µM. For the same molecule, the TGI (SF-295 CNS) was > 100 µM, the GI50 (CAKI-1 renal) was 33.5 µM and the TGI (CAKI-1 renal) was 96.4 µM. The GI50 (SK-MEL-2 melanoma) was > 100 µM, the TGI (SK-MEL-2 melanoma) was > 100 µM and the GI50 (IGROV1 ovarian) was > 100 µM. The TGI (IGROV1 ovarian) was > 100 µM, the GI50 (RXF 393 renal) was 1.51 µM and the TGI (RXF 393 renal) was 26.4 µM. The GI50 (MDA-MB-435) was > 100 µM, the TGI (MDA-MB-435) was > 100 µM and the GI50 (NCI/ADR-RES ovarian) was 34.9 µM. For the same molecule, the TGI (NCI/ADR-RES ovarian) was > 100 µM, the GI50 (MALME-3M melanoma) was 37.7 µM and the TGI (MALME-3M melanoma) was > 100 µM. For the same molecule, the GI50 (M14 melanoma) was 41.3 µM and the TGI (M14 melanoma) was > 100 µM.
